Measured values from patent US10350210B2, “EGFR and ALK dual inhibitor” (PRECEDO PHARMACEUTICALS CO., LTD, priority 2015, dated 2019).

Legend:
Format in all cases: cell-based
NCI-H1975 = experiment: Growth of cancer cells (Cell Titer-Glo viability), NCI-H1975; settings: Homo sapiens; NCI-H1975 (EGFR L858R/T790M double mutant), 72 hrs
Procedure, shortened: (§1)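 Cells are counted as viable by CellTiter-Glo chemiluminescence. Murine BaF3 lines depend on a stably transfected TEL-fused kinase after IL-3 withdrawal, and the NSCLC lines express mutant EGFR.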

PC-9 = experiment: Growth of cancer cells (Cell Titer-Glo viability), PC-9; settings: Homo sapiens; PC-9 (EGFR delE746_A750 mutant), 72 hrs
Procedure, shortened: as §1

HCC827 = experiment: Growth of cancer cells (Cell Titer-Glo viability), HCC827; settings: Homo sapiens; HCC827 (mutant EGFR del19), 72 hrs
Procedure, shortened: (§2)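 Mouse BaF3 cells retrovirally transduced with human kinase fused to N-terminal TEL fragment, then IL-3 withdrawn so proliferation depends on the transgene. HCC827 carries EGFR del19 and NCI-H3255 EGFR L858R. Viable cells were quantified by CellTiter-Glo chemiluminescence on a microplate reader.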

NCI-H3122 = experiment: Growth of cancer cells (Cell Titer-Glo viability), NCI-H3122; settings: Homo sapiens; NCI-H3122 (expressing ALK gene), 72 hrs; read-out: GI50
BaF3 = experiment: Cell growth (Cell Titer-Glo viability), BaF3; settings: BaF3 mouse primary B cell, 72 hrs
BaF3-TEL-INSR = experiment: Cell growth (Cell Titer-Glo viability), BaF3-TEL-INSR; settings: Mus musculus; BaF3-TEL-INSR (stably expressing INSR protein), 72 hrs
Source text: (§3) By testing the effect of the novel kinase inhibitors on the proliferation of cancer cells, the selectivity of the compounds of the present disclosure in inhibiting the proliferation of cancer cells was further assessed. In this example, human non-small cell lung cancer cell NCI-H1975 (expressing EGFR L858R/T790M double mutant gene), human skin squamous carcinoma cell A431 (expressing wild-type EGFR gene), non-small cell lung cancer NCI-H3255 (expressing EGFR L858R mutant gene), non-small cell lung cancer cell NCI-H3122 (expressing ALK gene), human non-small cell lung cancer cell A549 (expressing wild-type EGFR gene), human non-small cell lung cancer cell NCI-H2122 (expressing wild-type EGFR gene), human non-small cell lung cancer cell NCI-H460 (expressing wild-type EGFR gene), human non-small cell lung cancer cell PC-9 (expressing EGFR delE746_A750 mutant gene), Chinese hamster ovary cell CHO (Cricetulus griseus, hamster, Chinese, ovary), Chinese hamster lung cell CHL, human non-small cell lung cancer cell HCC827 (expressing mutant EGFR del19 gene), human lung adenocarcinoma cell HCC4006 (expressing mutant EGFR del19 gene), human non-small cell lung cancer cell NCI-H2228 (expressing wild-type ALK gene), and mouse primary B cell BaF3 were used, and the above cells were all purchased from ATCC (US). In addition, mouse BaF3-TEL-ALK (stably expressing ALK kinase), mouse BaF3-ALK-F1174L (stably expressing mutant ALK F1174L kinase), mouse BaF3-NPM-ALK (stably expressing ALK kinase), mouse BaF3-TEL-EGFR (stably expressing EGFR kinase), mouse BaF3-TEL-EGFR-T790M (stably expressing EGFR T790M mutant kinase), mouse BaF3-FL-EGFR-Del19 (stably expressing EGFR delE746_A750 mutant kinase), mouse BaF3-TEL-EGFR-L858R (stably expressing EGFR L858R mutant kinase), mouse BaF3-FL-EGFR-T790M-L858R (stably expressing EGFR T790M/L858R mutant kinase), mouse BaF3-TEL-INSR (stably expressing INSR protein), mouse BaF3-TEL-IGF1R (stably expressing IGF1R Protein), mouse BaF3-EML4-ALK (stably expressing EML4-ALK Protein), mouse BaF3-TEL-JAK3 (stably expressing JAK3 kinase protein), mouse BaF3-TEL-CSF1R (stably expressing CSF1R protein), and mouse BaF3-TEL-ALK-F1196M (stably expressing ALK F1196M mutant kinase) were also used in this example. The above cell lines were all established by our laboratory via the following process: kinase proteins or protein domain sequences of human ALK, ALK F1174L, EGFR, EGFR T790M, EGFR delE746_A750, EGFR L858, EGFR T790M/L858R, INSR, IGF1R, EML4-ALK, JAK3, CSF1R, ALK F1196M were amplified respectively by PCR, and were respectively inserted into MSCV-Puro vector (Clontech) with N-terminal TEL fragments and/or NPM fragments and/or TPR fragments; the resultants were stably transfected into mouse BaF3 cells by the means of retrovirus, and the IL-3 growth factors were removed, and eventually the ALK, ALK F1174L, EGFR, EGFR T790M, EGFR delE746_A750, EGFR L858, EGFR T790M/L858R, INSR, IGF1R, EML4-ALK, JAK3, CSF1R, ALK F1196M-transferred protein dependent cell lines were obtained.
(§4) The number of viable cells was determined quantitatively by a microplate reader using Cell Titer-Glo® (Promega, US) chemiluminescence cell viability assay kit.

BaF3-EML4-ALK = experiment: Cell growth (Cell Titer-Glo viability), BaF3-EML4-ALK; settings: Mus musculus, Ba/F3 EML4-ALK; BaF3-EML4-ALK (stably expressing EML4-ALK protein), 72 hrs
Source text: as §3, §4

BaF3-TEL-JAK3 = experiment: Cell growth (Cell Titer-Glo viability), BaF3-TEL-JAK3; settings: Mus musculus; BaF3-TEL-JAK3 (stably expressing JAK3 kinase protein), 72 hrs
Source text: as §3, §4

BaF3-TEL-CSF1R = experiment: Cell growth (Cell Titer-Glo viability), BaF3-TEL-CSF1R; settings: Mus musculus; BaF3-TEL-CSF1R (stably expressing CSF1R protein), 72 hrs
Source text: as §3, with “The above cell lines were all established by our laboratory via the following process: kinase proteins or protein domain sequences of human ALK, ALK F1174L, EGFR, EGFR T790M, EGFR delE746_A750, EGFR L858, EGFR T790M/L858R, INSR, IGF1R, EML4-ALK, JAK3, CSF1R, ALK F1196M were amplified respectively by PCR, and were respectively inserted into MSCV-Puro vector (Clontech) with N-terminal TEL fragments and/or NPM fragments and/or TPR fragments; the resultants were stably transfected into mouse BaF3 cells by the means of retrovirus, and the IL-3 growth factors were removed, and eventually the ALK, ALK F1174L, EGFR, EGFR T790M, EGFR delE746_A750, EGFR L858, EGFR T790M/L858R, INSR, IGF1R, EML4-ALK, JAK3, CSF1R, ALK F1196M-transferred protein dependent cell lines were obtained.” left out
as §4

BaF3-TEL-ALK = experiment: Cell growth (Cell Titer-Glo viability), BaF3-TEL-ALK; settings: Mus musculus; BaF3-TEL-ALK (stably expressing ALK kinase), 72 hrs
Procedure, shortened: as §2

BaF3-NPM-ALK = experiment: Cell growth (Cell Titer-Glo viability), BaF3-NPM-ALK; settings: Mus musculus; BaF3-NPM-ALK (stably expressing ALK kinase), 72 hrs
BaF3-TEL-ALK-F1196M = experiment: Cell growth (Cell Titer-Glo viability), BaF3-TEL-ALK-F1196M; settings: Mus musculus; BaF3-TEL-ALK-F1196M (ALK F1196M mutant kinase), 72 hrs
Source text: (§5) By testing the effect of the novel kinase inhibitors on the proliferation of cancer cells, the selectivity of the compounds of the present disclosure in inhibiting the proliferation of cancer cells was further assessed. In this example, human non-small cell lung cancer cell NCI-H1975 (expressing EGFR L858R/T790M double mutant gene), human skin squamous carcinoma cell A431 (expressing wild-type EGFR gene), non-small cell lung cancer NCI-H3255 (expressing EGFR L858R mutant gene), non-small cell lung cancer cell NCI-H3122 (expressing ALK gene), human non-small cell lung cancer cell A549 (expressing wild-type EGFR gene), human non-small cell lung cancer cell NCI-H2122 (expressing wild-type EGFR gene), human non-small cell lung cancer cell NCI-H460 (expressing wild-type EGFR gene), human non-small cell lung cancer cell PC-9 (expressing EGFR delE746_A750 mutant gene), Chinese hamster ovary cell CHO (Cricetulus griseus, hamster, Chinese, ovary), Chinese hamster lung cell CHL, human non-small cell lung cancer cell HCC827 (expressing mutant EGFR del19 gene), human lung adenocarcinoma cell HCC4006 (expressing mutant EGFR del19 gene), human non-small cell lung cancer cell NCI-H2228 (expressing wild-type ALK gene), and mouse primary B cell BaF3 were used, and the above cells were all purchased from ATCC (US). […]
as §4

A549 = experiment: Growth of cancer cells (Cell Titer-Glo viability), A549; settings: Homo sapiens; A549 (wild-type EGFR), 72 hrs
BaF3-TEL-EGFR-T790M = experiment: Cell growth (Cell Titer-Glo viability), BaF3-TEL-EGFR-T790M; settings: Mus musculus; BaF3-TEL-EGFR-T790M (EGFR T790M mutant kinase), 72 hrs
Procedure, shortened: as §2

BaF3-TEL-IGF1R = experiment: Cell growth (Cell Titer-Glo viability), BaF3-TEL-IGF1R; settings: Mus musculus; BaF3-TEL-IGF1R (stably expressing IGF1R protein), 72 hrs
Source text: as §5, with “(US). In addition, mouse BaF3-TEL-ALK (stably expressing ALK kinase), mouse BaF3-ALK-F1174L (stably expressing mutant ALK F1174L kinase), mouse BaF3-NPM-ALK (stably expressing ALK kinase), mouse BaF3-TEL-EGFR (stably expressing EGFR kinase), mouse BaF3-TEL-EGFR-T790M (stably expressing EGFR T790M mutant kinase), mouse BaF3-FL-EGFR-Del19 (stably expressing EGFR delE746_A750 mutant kinase), mouse BaF3-TEL-EGFR-L858R (stably expressing EGFR L858R mutant kinase), mouse BaF3-FL-EGFR-T790M-L858R (stably expressing EGFR T790M/L858R mutant kinase), mouse BaF3-TEL-INSR (stably expressing INSR protein), mouse BaF3-TEL-IGF1R (stably expressing IGF1R Protein), mouse BaF3-EML4-ALK (stably expressing EML4-ALK Protein), mouse BaF3-TEL-JAK3 (stably expressing JAK3 kinase protein), mouse BaF3-TEL-CSF1R (stably expressing CSF1R protein), and mouse BaF3-TEL-ALK-F1196M (stably expressing ALK F1196M mutant kinase) were also used in this example.” for “(US).”
as §4

Structure (SMILES)	GI50 (NCI-H1975) [nM]	GI50 (PC-9) [nM]	GI50 (HCC827) [nM]	GI50 (NCI-H3122) [nM]	GI50 (BaF3) [nM]	GI50 (BaF3-TEL-INSR) [nM]	GI50 (BaF3-EML4-ALK) [nM]	GI50 (BaF3-TEL-JAK3) [nM]	GI50 (BaF3-TEL-CSF1R) [nM]	GI50 (BaF3-TEL-ALK) [nM]	GI50 (BaF3-NPM-ALK) [nM]	GI50 (BaF3-TEL-ALK-F1196M) [nM]	GI50 (A549) [nM]	GI50 (BaF3-TEL-EGFR-T790M) [nM]	GI50 (BaF3-TEL-IGF1R) [nM]
C=CC(=O)Nc1cc(Nc2ncc(Cl)c(Nc3ccccc3C(=O)NC)n2)c(OC)cc1N1CCN(C2CCN(C)CC2)CC1 [Compound 72, 2-(2-(5-acrylamido-2-methoxy-4-(4-(1-methylpiperidin-4-yl)piperazin-1-yl)phenylamino)-5-chloropyrimidin-4-ylamino)-N-methylbenzamide]	120	120	210	18	1700	49	71	290	370	–	–	–	–	–	–
C=CC(=O)Nc1cc(Nc2ncc(Cl)c(Nc3ccccc3C(=O)NC)n2)c(OC)cc1N1CCN(C2CCCCC2)CC1 [Compound 70, 2-(2-(5-acrylamido-4-(4-cyclohexylpiperazin-1-yl)-2-methoxyphenylamino)-5-chloropyrimidin-4-ylamino)-N-methylbenzamide]	65	35	140	7.6	1000	< 0.3	4.5	58	170	–	–	–	–	–	–
C=CC(=O)Nc1cc(Nc2ncc(Cl)c(Nc3ccccc3C(=O)NC)n2)c(OC)cc1N1CCN(C(C)=O)CC1 [Compound 68, 2-(2-(4-(4-ethanoylpiperazin-1-yl)-5-acrylamido-2-methoxyphenylamino)-5-chloropyrimidin-4-ylamino)-N-methylbenzamide]	250	97	83	12	5700	14	160	270	–	120	–	–	1700	250	41

Now from value to compound:

GI50 (NCI-H1975) [nM]	GI50 (PC-9) [nM]	GI50 (HCC827) [nM]	GI50 (NCI-H3122) [nM]	GI50 (BaF3) [nM]	GI50 (BaF3-TEL-INSR) [nM]	GI50 (BaF3-EML4-ALK) [nM]	GI50 (BaF3-TEL-JAK3) [nM]	GI50 (BaF3-TEL-CSF1R) [nM]	GI50 (BaF3-TEL-ALK) [nM]	GI50 (BaF3-NPM-ALK) [nM]	GI50 (BaF3-TEL-ALK-F1196M) [nM]	GI50 (A549) [nM]	GI50 (BaF3-TEL-EGFR-T790M) [nM]	GI50 (BaF3-TEL-IGF1R) [nM]	Structure (SMILES)
< 0.3	58	–	2	380	< 0.3	–	–	–	1	< 0.3	< 0.3	–	–	–	C=CC(=O)Nc1cc(Nc2ncc(Br)c(Nc3ccccc3S(=O)(=O)C(C)C)n2)c(OC)cc1N1CCN(CC)CC1 [Compound 83, N-(5-(5-bromo-4-(2-(isopropylsulfonyl)phenylamino)pyrimidin-2-ylamino)-2-(4-ethylpiperazin-1-yl)-4-methoxyphenyl)acrylamide]
79	15	62	4.5	1100	49	1.4	37	100	–	–	–	–	–	–	C=CC(=O)Nc1cc(Nc2ncc(Cl)c(Nc3ccccc3C(=O)NC)n2)c(OC)cc1N1CCN(C(C)C)CC1 [Compound 69, 2-(2-(5-acrylamido-4-(4-isopropylpiperazin-1-yl)-2-methoxyphenylamino)-5-chloropyrimidin-4-ylamino)-N-methylbenzamide]
